According to patent US11229709B2, “Dendrimer drug conjugates for sustained intra-articular delivery” (Massachusetts Institute of Technology, priority 2017, dated 2022):

Legend:
[1] = Joint residence time after intra-articular injection (IVIS imaging); conditions: rats, calculated from half-life, dose injected and drug EC50
Source text: Prior to injection, knee joints were shaved and disinfected with iodine scrub and 70% ethanol, 3 times. Rats were serially imaged at timepoints using a IVIS Spectrum (Perkin-Elmer) instrument at 640/680 nm. Images were quantified by drawing an anatomical Region of Interest (ROI) around the knee joint, applying to each image, and measuring radiant efficiency within the ROI on Living Image (Perkin-Elmer) software. Data for each treatment group was fit to a single exponential decay curve (FIG. 4C) with a terminal plateau assigned to all groups based on imaging an untreated rat.

[2] = test system: medial tibia cartilage degeneration; assay: Rat surgical osteoarthritis model ACLT+MMx, histological analysis; type: in vivo; design: mean area of degenerated medial tibial cartilage, % of total cartilage area: dose or concentration left out as unconfirmed; conditions: single intra-articular injection 48 hours after surgery
Method: (§1) Skeletally mature male Sprague-Dawley rats of 12 weeks of age (350-400 g, Taconic) were injured by the Anterior Cruciate Ligament Transection and Partial Medial Meniscectomy (ACLT+pMMx) method to induce arthritis. […] Treatments were given by intra-articular injection into the affected joint 48 hours after surgery, using a joint concentration of 6 M IGF-1. Rats were sacrificed for analysis 30 days after surgery.
Histological processing and analysis was performed according to the guidelines for rat surgical models by the Osteoarthritis Research Society International (OARSI) histopathology initiative (Gerwin et al, Osteoarthritis and Cartilage, 2010, Schmitz et al, Osteoarthritis and Cartilage 2010). Six 250 μm frontal step sections were taken from the central ˜1.5 mm of the joint and stained with Toluidine Blue/Fast Green. Aggrecan in healthy cartilage is stained blue (dark) and collagens in bone or degenerated cartilage are stained green (light). The section with the most severe medial tibia cartilage lesion was identified by a blinded investigator and used for all further analysis. Sections were scored quantitatively for degeneration in a blinded manner by histomorphometry techniques based on OARSI histopathology initiative guidelines.
Degenerated tissue was defined as >50% cell death and loss of toluidine blue staining. […]

osteophytes = assay: Rat surgical osteoarthritis model ACLT+MMx, micro-computed tomography osteophyte volume; type: in vivo; conditions: single injection after surgery
Method: as §1
After fixation and before decalcification, excised rat joints were attached to the bore of a microCT scanner (GE eXplore CT 120) and scanned at 0.03° angles for a total of 1200 scans over a time period of 1.5 hours. Scans used an 80 kV x-ray potential, 32 mA current, and a 100 ms integration time. Image data sets were reconstructed into regions of interest encompassing single joints using Microview software (Parallax Innovations).
3D positioning data were used to quantify total volume of osteophytes (bone spurs) on each joint. 3D DICOM analysis software (Osirix MD) was used by a blinded investigator to re-section the images into a uniform frontal plane, perpendicular to an axis tangential to the femoral condyles and tibial plateau in the sagittal plane and an axis bisecting the femoral condyles and tibial plateau in the transverse plane. […] The sections were then reconstructed to 3D, and total osteophyte ROI volume was calculated for each rat. […]

insulin like growth factor 1 [IGF-1]
time at relevant (therapeutic) doses in the joint [1]: 3 days | mean width of cartilage degeneration at the cartilage surface (0% tissue depth) ([2]; 30 days after surgery): 1390 μm | mean area of degenerated medial tibial cartilage, % of total cartilage area ([2]; joint concentration of IGF-1, 30 days after surgery): 19.7% | reduction of osteophyte burden versus untreated (osteophytes): ~50% | mean total osteophyte volume (burden) (osteophytes; 30 days after surgery, microCT): 0.60 mm^3
